Reference: BindingDB's records for doi:10.1021/bi00139a026 (University of California San Francisco, 1992)

Legend:
[1] = target: T1, Amine oxidase [flavin-containing] B (Homo sapiens, UniProt P27338); experiment: Inhibiton Assay
T1 sequence (P27338 whole entry): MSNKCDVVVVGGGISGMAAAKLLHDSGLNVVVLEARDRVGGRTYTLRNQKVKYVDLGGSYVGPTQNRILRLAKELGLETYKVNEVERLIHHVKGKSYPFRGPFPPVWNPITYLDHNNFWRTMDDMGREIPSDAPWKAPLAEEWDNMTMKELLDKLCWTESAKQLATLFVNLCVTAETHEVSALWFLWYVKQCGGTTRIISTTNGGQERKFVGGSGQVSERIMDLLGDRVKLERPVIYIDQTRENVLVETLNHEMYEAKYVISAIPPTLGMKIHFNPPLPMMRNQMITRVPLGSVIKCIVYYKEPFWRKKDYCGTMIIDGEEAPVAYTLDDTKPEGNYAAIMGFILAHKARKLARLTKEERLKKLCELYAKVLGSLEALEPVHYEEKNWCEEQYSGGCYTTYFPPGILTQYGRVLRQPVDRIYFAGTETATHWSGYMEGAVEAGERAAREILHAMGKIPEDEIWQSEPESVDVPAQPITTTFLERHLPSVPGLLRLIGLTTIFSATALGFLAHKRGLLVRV
Text: (§1) Inhibition assay using MAO-A and MAO-B.

[2] = target: T2, Amine oxidase [flavin-containing] A (Homo sapiens, UniProt P21397); experiment: Inhibiton Assay
T2 sequence (P21397 whole entry): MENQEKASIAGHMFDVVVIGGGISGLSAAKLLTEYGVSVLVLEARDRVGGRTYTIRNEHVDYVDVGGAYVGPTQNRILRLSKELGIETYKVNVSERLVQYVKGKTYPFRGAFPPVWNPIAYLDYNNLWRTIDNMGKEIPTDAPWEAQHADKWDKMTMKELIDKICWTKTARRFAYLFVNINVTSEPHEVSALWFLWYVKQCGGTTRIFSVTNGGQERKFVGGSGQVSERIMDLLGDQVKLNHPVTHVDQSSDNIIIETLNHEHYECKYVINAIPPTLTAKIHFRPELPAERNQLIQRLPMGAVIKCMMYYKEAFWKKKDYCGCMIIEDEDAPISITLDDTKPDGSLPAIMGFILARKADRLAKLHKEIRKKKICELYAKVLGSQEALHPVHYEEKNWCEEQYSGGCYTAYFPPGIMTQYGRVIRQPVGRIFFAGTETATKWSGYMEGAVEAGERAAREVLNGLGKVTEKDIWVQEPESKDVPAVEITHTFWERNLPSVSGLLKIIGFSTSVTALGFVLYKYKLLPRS
Text: as §1

IC50 [1] [µM] | Ki [2] [µM] | Structure (SMILES)
12 | 37 | C[n+]1ccc(CCc2ccccc2)cc1 [MPP analogue, 17]
850 | 5.5 | C[n+]1ccc(Cc2cccc3ccccc23)cc1 [MPP analogue, 19]

Structure (SMILES) | IC50 [1] [µM] | Ki [2] [µM]
C[n+]1ccc(Cc2ccccc2F)cc1 [MPP analogue, 18] | 2000 | 29
